One data set deals with 3LL Lewis lung tumor. The data set can be described thus: Treatment of 3LL murine Lewis lung tumors in C57BL6 mice. The note with it: for Mean Tumor Volume: day 23, mean ± SEM. The format is in vivo. On the procedure:
Female C57BL6 mice (8 animals per group) received bilateral SC implants of 3LL Lewis lung tumor fragments on day 0 and were treated subcutaneously with vehicle, rhIGFBP-3 (3 or 10 mg/kg twice daily×21), carboplatin (25 or 50 mg/kg; IP; single dose) or a combination of agents beginning on day 2.

Data set [1] relates to LoVo colorectal carcinoma xenografts. The data set can be described thus: Treatment of LoVo human colorectal carcinoma xenografts with rhIGFBP-3 and irinotecan in balb/c nu/nu mice. In kind it is in vivo. The note with it: for effect after discontinuation of treatment: treatment discontinued day 21, monitored to day 40. The protocol: Female balb/c nu/nu mice (8 animals per group) received bilateral SC implants of LoVo colorectal carcinoma fragments which were allowed to grow to volumes of 100-150 mm3 prior to initiation of treatment. Upon establishment of the tumors, mice were treated with vehicle, rhIGFBP-3 (3, 10 or 30 mg/kg twice daily; SC x 21), irinotecan (10 or 20 mg/kg; IP; 4 doses at 4 day intervals) or a combination of agents. All treatment was discontinued on day 21 and mice were monitored for tumor response out to day 40. Net tumor growth was calculated at each time point.
On the technique in general: Xenograft models place foreign cells or tissue in a host animal.

Data set [2] can be described thus: Pharmacokinetics of rhIGFBP-3 after single SC injection in rats. In kind it is in vivo.
Method: The purpose of this study was to characterize the pharmacokinetic profile of rhIGFBP-3 following a single SC administration to rats. Adult male rats (N=5/group) were administered doses of 3-30 mg/kg rhIGFBP-3 by bolus SC injection and blood specimens were collected for drug concentration analysis.
Data set [3] concerns MCF-7 human breast xenografts. The data set can be described thus: Early treatment of MCF-7 human breast xenografts in CD1 nu/nu mice. In kind it is in vivo. On the procedure: Female CD1 nu/nu mice (12 animals per group) received SC implants of 5×10^6 MCF-7 cells. On the same day, mice received either vehicle or rhIGFBP-3 IP at a dose of 20 mg/kg. Mice were then treated with either vehicle or rhIGFBP-3 (20 mg/kg twice daily) for 10 weeks. Tumor volume was monitored beginning on week 2 and measured 3 times thereafter. […] In addition, the 3 tumors that did arise in the rhIGFBP-3 group were smaller than those in the control group.

Data set [4] deals with MCF-7 breast tumor xenografts. The data set is described as follows: Treatment of established MCF-7 human breast tumors with rhIGFBP-3 and paclitaxel in balb/c nu/nu mice. The format is in vivo. The protocol:
Female balb/c nu/nu mice (8 animals per group) received bilateral SC implants of MCF-7 breast tumor fragments which were allowed to grow to volumes of 100-150 mm^3 prior to initiation of treatment. Upon establishment of the tumors, mice were treated with vehicle, rhIGFBP-3 (3, 10 or 30 mg/kg twice daily; SC×21), paclitaxel (10 or 20 mg/kg; IP; daily for 5 days) or a combination of agents. Tumors were measured twice weekly for 3 weeks and net tumor growth was calculated at each time point.

Data set [5] has as its system MCF-7 human breast cancer cells. The data set can be described thus: MCF-7 cell proliferation (MTT) with increasing rhIGFBP-3. The format is cell-based. Conditions: 5% FBS, 4 days, increasing concentrations. The protocol:
FIG. 5(A) depicts the MCF-7 breast cancer cell proliferation as assayed by MTT in increasing concentrations of rhIGFBP-3.
The purpose of this study was to evaluate the effects of rhIGFBP-3 alone and in combination with radiation therapy in MCF-7 human breast cancer cells. MCF-7 cells were plated and cultured in 5% FBS for 4 days with increasing concentrations of rhIGFBP-3 in the media.

The test system of another data set is BT474. The data set can be described thus: Growth inhibition (MTT assay), BT474. In kind it is cell-based, human. A general note: Tetrazolium dyes change colour on reduction, which living cells bring about.
In the next data set the test system is BT474/HerR. The data set is described as follows: Growth inhibition (MTT assay), BT474/HerR. The format is cell-based, human.
A further data set concerns SKBR3. The data set is described as follows: Growth inhibition (MTT assay), SKBR3. The format is cell-based, human.
The test system of a further data set is SKBR3/IGF-IR. The data set is described as follows: Growth inhibition (MTT assay), SKBR3/IGF-IR. The format is cell-based, human.
The next data set deals with MCF-7/HER2-18. The data set can be described thus: Growth inhibition (MTT assay), MCF-7/HER2-18. In kind it is cell-based, human.
For data set [6] the following is noted: rat, in vivo, iv.
Method: (§1) The purpose of this study was to characterize the pharmacokinetic profile of rhIGFBP-3 following a single IV administration to rats. Adult male Sprague-Dawley rats (N=3/group) were administered doses of 0.8-160 mg/kg rhIGFBP-3 and blood specimens were collected for drug measurement.
Data set [7] concerns MCF-7 human breast cancer cells. Conditions: for cell survival: 1 μg/mL, day 12.
Method: In a second experiment, MCF-7 cells were exposed to increasing doses of irradiation and rhIGFBP-3 24 hours after plating. Cell survival was determined on day 12.
Data set [8] can be described thus: Pharmacokinetics of rhIGFBP-3 after single IV administration to rats. Conditions: for AUC / Cmax: mean ± SD.
Method: as §1
Where [9] appears, read: 20 mg/kg twice daily, after 10 weeks, mean ± SD.
Setting [10] is: IV, 8.0 mg/kg vs 0.8 mg/kg (ten fold increase in dose).

Where two headings read alike, the source gives them in different places. Marks after values point to notes of the source that are not given here.

With `N.N.O=C([O-])C1(C(=O)[O-])CCC1.[Pt+2]` [Carboplatin, carboplatin, reference compound], the “Mean Tumor Volume” value in the data set on 3LL Lewis lung tumor (25 mg/kg IP single dose) was 144.92 ± 31.36* mm^3; in the data set on 3LL Lewis lung tumor (50 mg/kg IP single dose) it was 187.36 ± 37.42* mm^3.

As to `CCc1c2c(nc3ccc(OC(=O)N4CCC(N5CCCCC5)CC4)cc13)-c1cc3c(c(=O)n1C2)COC(=O)[C@]3(O)CC` [irinotecan, reference compound], the “effect after discontinuation of treatment” value in [1] is “persisting effect”.

One may read the AUC as the area under the concentration-time curve, a measure of exposure. A low value points to low exposure. For orientation: Cmax means the peak of the concentration-time curve. Regarding “rhIGFBP-3: recombinant human insulin-like growth factor binding protein-3; preferred form from E. coli, native human sequence, lacks glycosylation”, the “absorption following SC administration” value in [2] (SC) is listed as “readily absorbed into the circulation”. Besides, the AUC in [2] (SC, 3 mg/kg) was found to be 5347 ± 909 ng·h/mL; in data set [2] (SC, 10 mg/kg), 12999 ± 933 ng·h/mL; in data set [2] (SC, 30 mg/kg), 54476 ± 7517 ng·h/mL; in data set [8] (IV, 0.8 mg/kg), 2172 ± 999 ng·h/mL; in data set [8] (IV, 8.0 mg/kg), 10057 ± 1248 ng·h/mL; in data set [8] (IV, 80 mg/kg), 215060 ± 39102 ng·h/mL. Besides, the AUC in [8] (IV, 160 mg/kg) is 287575 ± 64180 ng·h/mL. In addition, the CL/W in [2] (SC, 3 mg/kg) worked out at 9.63 ± 2.03 mL/min/kg; in data set [2] (SC, 10 mg/kg) it was 12.9 ± 1 mL/min/kg; in data set [2] (SC, 30 mg/kg) it was 9.33 ± 1.42 mL/min/kg; in data set [6] (0.8 mg/kg), 7.07 ± 3.12 mL/min/kg; in data set [6] (8 mg/kg) it was 13.4 ± 1.62 mL/min/kg; in data set [6] (80 mg/kg), 6.33 ± 1.07 mL/min/kg. The CL/W in data set [6] (160 mg/kg) was found to be 9.65 ± 2.42 mL/min/kg. The Cmax in data set [2] (SC, 3 mg/kg) was 751 ± 120 ng/mL; in [2] (SC, 10 mg/kg), 2255 ± 217 ng/mL; in data set [2] (SC, 30 mg/kg), 6924 ± 1021 ng/mL; in [8] (IV, 0.8 mg/kg), 3067 ± 551 ng/mL; in [8] (IV, 8.0 mg/kg), 4967 ± 1159 ng/mL; in data set [8] (IV, 160 mg/kg), 476667 ± 122202 ng/mL. The compound further yielded a peak concentration (Cmax) in data set [8] (IV) of 360333 ± 62772 ng/mL. Moreover, the “increase in AUC compared to the 3 mg/kg group” value was “approximately 2.5 fold” in data set [2] (SC, 10 mg/kg) and about 10 fold in data set [2] (SC, 30 mg/kg). For the same compound, the signs of toxicity entry in data set [2] (single SC, 3-30 mg/kg) is “No signs of toxicity”. For the same compound, the entries for the “Mean Tumor Volume” value (in the data set on 3LL Lewis lung tumor (3 mg/kg twice daily SC x21); with 3LL Lewis lung tumor (10 mg/kg twice daily SC x21); in data set [3] (setting [9])) were 289.00 ± 42.97 mm^3, 149.73 ± 25.34* mm^3 and 37.7 ± 42.0 mm^3, respectively. Further, the “reduction in tumor volume compared with carboplatin” value in the data set with 3LL Lewis lung tumor (10 mg/kg twice daily) is listed as “equal to that observed with the standard chemotherapeutic agent carboplatin”. Also, the “3LL Lewis lung tumor growth, single agent” value with 3LL Lewis lung tumor (3 or 10 mg/kg twice daily SC) is “dose-dependently inhibited”. The “effect in combination with carboplatin” value in the data set with 3LL Lewis lung tumor (rhIGFBP-3 3 or 10 mg/kg twice daily + carboplatin 25 or 50 mg/kg IP) is “did not potentiate the effects of carboplatin”. Also, in data set [3] (20 mg/kg twice daily IP, after 10 weeks), the “Number of Mice with Tumors” value is 3/12. Further, the “MCF-7 tumor establishment compared to control” value in data set [3] (20 mg/kg twice daily for 10 weeks) is recorded as “prevented MCF-7 tumor establishment”. Besides, the “Mean Tumor Weight” value in [3] (setting [9]) is on record as 0.046 ± 0.047 g. Besides, in data set [3] (end of treatment, p≦0.05), the “tumor volume compared to control, all mice in each group” value is reported as “significantly lower”. The “net tumor growth, single agent” value in data set [4] (3, 10 or 30 mg/kg twice daily SC x21) is recorded as “did not inhibit net tumor growth”. Besides, the “effect in combination with paclitaxel” value in data set [4] (maximum effect at 10 mg/kg rhIGFBP-3 and 20 mg/kg paclitaxel) is reported as “enhanced the effect of paclitaxel”. The “net tumor growth, combination with irinotecan” value in data set [1] (30 mg/kg rhIGFBP-3 + 10 mg/kg irinotecan) is “optimal results”. For the same compound, in data set [1] (30 mg/kg twice daily SC x21), the “inhibition of net tumor growth, single agent, vs 10 mg/kg irinotecan” value is on record as “equally effective”. Also, the “effect after discontinuation of treatment” value in data set [1] is on record as “persisting effect”. Also, the “maximum growth suppression compared to control” value in data set [5] was determined as 50%. For the same compound, the “Growth Inhibition (MTT Assay)” value in the data set on BT474 (0.1-100 μg/ml) is 10-20%; in the data set with BT474/HerR (0.1-100 μg/ml), 10-26%; in the data set with SKBR3 (0.1-100 μg/ml) it was 20-40%; with SKBR3/IGF-IR (0.1-100 μg/ml), 12-40%; in the data set on MCF-7/HER2-18 (0.1-100 μg/ml) it was 15-55%. Also, the “effect when combined with Herceptin, in words” value with BT474 (combined with Herceptin) is recorded as “did not significantly enhance Herceptin sensitivity”; with BT474/HerR (combined with Herceptin) it was “strong dose-dependent increase in Herceptin sensitivity”; in the data set with SKBR3 (combined with Herceptin), “modest effect”; in the data set on SKBR3/IGF-IR (combined with Herceptin) it was “strong dose-dependent increase in Herceptin sensitivity”; in the data set on MCF-7/HER2-18 (combined with Herceptin, compared to rhIGFBP-3 alone) it was “marginal dose-dependent increase in growth inhibition”. Further, the figures for the “growth inhibition in words, single agent” value in the data set on BT474/HerR (single agent), in the data set with SKBR3/IGF-IR (single agent) and in the data set on MCF-7/HER2-18 (single agent) were “less pronounced effect”, “marked dose-dependent growth inhibition” and “marked dose-dependent growth inhibition”, respectively. For the same compound, the cell survival in [7] (0 Gy) is reported as about 65%; in data set [7] (2 Gy), 37%; in data set [7] (4 Gy), 21%; in data set [7] (6 Gy), 5%. Further, the “effect on radiation-induced cell death” value in data set [7] (all radiation doses) is “accentuated this effect on cell death at all doses”. The “drug concentration in the serum” value in data set [8] (IV 0.8 mg/kg, four hours after administration, below quantitative limitation of the assay) is under 300 ng/mL. Further, the “fold increase in AUC” value in [8] (setting [10]) is given as 4.6 fold. Also, in data set [8] (setting [10]), the “fold increase in Cmax” value was 1.6 fold. In data set [8] (IV, all dose groups other than 0.8 mg/kg), the “drug serum concentrations 8 hours after dosing” value is listed as “detectable”. For the same compound, the adverse clinical signs result in [8] (single IV, any dose tested (0.8-160 mg/kg)) is on record as “no adverse clinical signs”.

The record behind these values is patent publication US20040127411A1, “Methods for treating lung cancer using insulin-like growth factor binding protein-3” (Insmed, Inc., priority 2002, published 2004).
